Series [1] deals with T1, HIV-1 RT-associated RNase H (Human immunodeficiency virus type 1 group M subtype B, UniProt P04585). In words: HIV-1 DNA polymerase-independent RNase H activity determination. It counts as biochemical.
For series [2], the target named is HIV-1 RT-associated RNA dependent DNA polymerase (Human immunodeficiency virus type 1 group M subtype B, UniProt P04585). In words: biochemical.
The next series deals with HIV-2 (ROD strain). In words: Antiviral assay, HIV-2. It counts as cell-based. Particulars: acutely infected MT-4 cells; at concentrations less than cytotoxic.
The target of series [3] is T1, HIV-1 RT-associated RNase H. Description: RNase H assay with modified order of addition. It counts as biochemical. The note with it: for Fold increase of IC50 versus the regular assay: inhibitor added after duplex substrate vs regular assay.
The next series has as its target HIV-1 RT heterodimer (Human immunodeficiency virus type 1 group M subtype B, UniProt P04585). In words: Differential Scanning Fluorimetry. It is filed as binding. The note with it: 10 μM inhibitor, 300 nM HIV-1 RT; data not shown.
The subject of the next series is HIV-1 (IIIB strain). In words: Antiviral assay, HIV-1. It is filed as cell-based. The note with it: acutely infected MT-4 cells; at concentrations less than cytotoxic.
Series [4] is described as follows: Cytotoxicity in mock-infected MT-4 cells. It is filed as cell-based. Particulars: human.

The term IC50 denotes the concentration needed to halve the response being measured. A word on the CC50: it is the concentration at which the toxic effect on the cells reaches its halfway point. Low values mean greater toxicity to the cells, high ones lower toxicity to the cells.

Take `O=C(Nc1sc2c(c1C(=O)Nc1ccccn1)CCCCC2)c1ccccc1Br` [Compound 23, 2-(2-Bromobenzamido)-N-(pyridin-2-yl)-5,6,7,8-tetrahydro-4H-cyclohepta[b]thiophene-3-carboxamide]: the IC50 in series [1] is 4.57 ± 0.01 µM; in series [2] it was above 50 µM.

`O=C(Nc1sc2c(c1C(=O)Nc1ccccn1)CCCCC2)c1ccccc1[N+](=O)[O-]` [Compound 24, 2-(2-Nitrobenzamido)-N-(pyridin-2-yl)-5,6,7,8-tetrahydro-4H-cyclohepta[b]thiophene-3-carboxamide]: the IC50 in series [1] stood at 53.5 ± 1.7 µM.

In series [1], `Nc1ccccc1C(=O)Nc1sc2c(c1C(=O)Nc1ccccn1)CCCCC2` [Compound 26, 2-(2-Aminobenzamido)-N-(pyridin-2-yl)-5,6,7,8-tetrahydro-4H-cyclohepta[b]thiophene-3-carboxamide] registered a half-maximal inhibitory concentration (IC50) of 14.9 ± 4.1 µM.

Consider `Nc1ccc(C(=O)Nc2sc3c(c2C(=O)Nc2ccccn2)CCCCC3)cc1` [Compound 27, 2-(4-Aminobenzamido)-N-(pyridin-2-yl)-5,6,7,8-tetrahydro-4H-cyclohepta[b]thiophene-3-carboxamide], for which the midpoint of inhibition in series [1], the IC50, lay at 21.4 ± 4.4 µM.

`Cc1ccccc1C(=O)Nc1sc2c(c1C(=O)Nc1ccccn1)CCCCC2` [Compound 29, 2-(2-Methylbenzamido)-N-(pyridin-2-yl)-5,6,7,8-tetrahydro-4H-cyclohepta[b]thiophene-3-carboxamide]: in series [1], half-maximal inhibition (IC50) was put at 18.3 ± 1.8 µM.

On to `COc1ccc(C(=O)Nc2sc3c(c2C(=O)Nc2ccccn2)CCCCC3)c(OC)n1` [Compound 30, 2,6-Dimethoxy-N-(3-(pyridin-2-ylcarbamoyl)-5,6,7,8-tetrahydro-4H-cyclohepta[b]thiophen-2-yl)nicotinamide], for which, in series [1], the IC50 turned out to be 21.5 ± 1 µM.

In the case of `COc1ccc(C(=O)Nc2sc3c(c2C(=O)Nc2ccccn2)CCCCC3)cc1OC` [Compound 31, 2-(3,4-Dimethoxybenzamido)-N-(pyridin-2-yl)-5,6,7,8-tetrahydro-4H-cyclohepta[b]thiophene-3-carboxamide], the IC50 was 4.01 ± 1 µM in series [1], above 50 µM in series [2] and 20 ± 7 µM in series [3]. Also, the “Fold decrease in RNase H potency relative to compound 33” value in series [1] (O-methylated hydroxyl groups vs catechol 33) is 5 fold. For the same molecule, the “Inhibition of HIV-2 (ROD) replication” value in the series with HIV-2 (ROD strain) was “unable to affect viral replication”. Also, the “Fold increase of IC50 versus the regular assay” value in series [3] is 5 fold. Moreover, the “Effect on Tm of the RT heterodimer” value at HIV-1 RT heterodimer is given as “no decreased Tm”. In addition, the “Inhibition of HIV-1 (IIIB) replication” value in the series on HIV-1 (IIIB strain) is “unable to affect viral replication”. In series [4], the CC50 at 5 days was found to be 6.24 µM.

The molecule `COc1ccc(C(=O)Nc2sc3c(c2C(=O)Nc2ccccn2)CCCCC3)c(O)n1` [Compound 32, 2-Hydroxy-6-methoxy-N-(3-(pyridin-2-ylcarbamoyl)-5,6,7,8-tetrahydro-4H-cyclohepta[b]thiophen-2-yl)nicotinamide] came in with an IC50 in series [1] of 15.1 ± 1.3 µM.

Take `O=C(Nc1sc2c(c1C(=O)Nc1ccccn1)CCCCC2)c1ccc(O)c(O)c1` [Compound 33, 2-(3,4-Dihydroxybenzamido)-N-(pyridin-2-yl)-5,6,7,8-tetrahydro-4H-cyclohepta[b]thiophene-3-carboxamide]: in the series on HIV-2 (ROD strain), the “Inhibition of HIV-2 (ROD) replication” value was “unable to affect viral replication”. In addition, the IC50 in series [2] worked out at 20.9 ± 1.7 µM; in series [3], 5.3 ± 0.2 µM. In addition, in series [3], the “Fold increase of IC50 versus the regular assay” value came out at 5 fold. Also, the “Effect on Tm of the RT heterodimer” value on HIV-1 RT heterodimer was “no decreased Tm”. Further, the “Inhibition of HIV-1 (IIIB) replication” value in the series with HIV-1 (IIIB strain) is “unable to affect viral replication”. In addition, the 50% cytotoxic concentration (CC50) at 5 days in series [4] is 30.7 µM.

Take `O=C(Nc1sc2c(c1C(=O)Nc1ccccn1)CCCCC2)c1cccs1` [Compound 34, N-(Pyridin-2-yl)-2-(thiophene-2-carboxamido)-5,6,7,8-tetrahydro-4H-cyclohepta[b]thiophene-3-carboxamide]: the results for the IC50 in series [1] and in series [2] were 10.4 ± 1.96 µM and above 50 µM, respectively.

In series [1], `CC(=O)Nc1sc2c(c1C(=O)Nc1ccccn1)CCCCC2` [Compound 35, 2-Acetamido-N-(pyridin-2-yl)-5,6,7,8-tetrahydro-4H-cyclohepta[b]thiophene-3-carboxamide] had an IC50 above 100 µM.

In turn, `O=C(Cc1ccccc1F)Nc1sc2c(c1C(=O)Nc1ccccn1)CCCCC2` [Compound 36, 2-(2-(2-Fluorophenyl)acetamido)-N-(pyridin-2-yl)-5,6,7,8-tetrahydro-4H-cyclohepta[b]thiophene-3-carboxamide] came in with a 50% inhibitory concentration (IC50) in series [2] above 50 µM.

Turning to `O=C(Nc1sc2c(c1C(=O)Nc1ccccc1F)CCCCC2)c1ccccn1` [Compound 37, N-(3-((2-Fluorophenyl)carbamoyl)-5,6,7,8-tetrahydro-4H-cyclohepta[b]thiophen-2-yl)picolinamide], 13.7 ± 1.6 µM corresponded to half-maximal inhibition in series [1] (IC50).

The values are drawn from article PMC6309732 (ChemMedChem, 2016).
